{"source": "patent US9790545B2", "about": "“Method for determining the neurodevelopmental toxicity of a compound in vitro” (UNIVERSITEIT MAASTRICHT, priority 2012, dated 2017)", "key": {"[1]": {"tested_on": "neural outgrowth of embryoid bodies from murine embryonic stem cells (ES-D3)", "assay": "Golden standard classification of neurodevelopmental toxicity (morphological scoring of neural outgrowth)", "conditions": "for Golden standard: tox / nontox at the concentration coded in the label (Table 3); for Neuro-developmentally toxic: yes / no at the concentration (μM) given in Table 3"}, "Hoxb6": {"tested_on": "Hoxb6", "assay": "Relative gene expression in neural differentiation culture of murine embryonic stem cells (ES-D3), microarray", "conditions": "exposed from day 3, harvested day 4 (24 h exposure), ratio to reference value, concentration coded in label (L low, H high, Table 3)"}, "Nrk": {"tested_on": "Nrk", "assay": "Relative gene expression in neural differentiation culture of murine embryonic stem cells (ES-D3), microarray", "conditions": "exposed from day 3, harvested day 4 (24 h exposure), ratio to reference value, concentration coded in label (L low, H high, Table 3)"}, "1700011H14Rik": {"tested_on": "1700011H14Rik", "assay": "Relative gene expression in neural differentiation culture of murine embryonic stem cells (ES-D3), microarray", "conditions": "exposed from day 3, harvested day 4 (24 h exposure), ratio to reference value, concentration coded in label (L low, H high, Table 3)"}, "Tph1": {"tested_on": "Tph1", "assay": "Relative gene expression in neural differentiation culture of murine embryonic stem cells (ES-D3), microarray", "conditions": "exposed from day 3, harvested day 4 (24 h exposure), ratio to reference value, concentration coded in label (L low, H high, Table 3)"}, "[2]": {"tested_on": "neural outgrowth of embryoid bodies from murine embryonic stem cells (ES-D3)"}}, "note": "Like-named read-outs stand apart in the source and are kept apart here."}
{"compound": "CCCC(CCC)C(=O)O", "note": "[VpaL, Valproic acid]", "values": [{"measurement": "Golden standard", "setting": "[1]", "result": "nontox"}, {"measurement": "Golden standard", "setting": "[1]; listed as VpaH", "result": "tox"}, {"measurement": "Neuro-developmentally toxic", "setting": "[1]", "result": "no"}, {"measurement": "Neuro-developmentally toxic", "setting": "[1]; listed as vpaH", "result": "yes"}, {"measurement": "relative expression value Hoxb6", "setting": "Hoxb6", "result": 0.807}, {"measurement": "relative expression value Hoxb6", "setting": "Hoxb6; listed as VpaH", "result": 0.721}, {"measurement": "relative expression value Nrk", "setting": "Nrk", "result": 0.914}, {"measurement": "relative expression value Nrk", "setting": "Nrk; listed as VpaH", "result": 1.518}, {"measurement": "relative expression value 1700011H14Rik", "setting": "1700011H14Rik", "result": 0.962}, {"measurement": "relative expression value 1700011H14Rik", "setting": "1700011H14Rik; listed as VpaH", "result": 0.316}, {"measurement": "relative expression value Tph1", "setting": "Tph1", "result": 0.944}, {"measurement": "relative expression value Tph1", "setting": "Tph1; listed as VpaH", "result": 1.130}]}
{"compound": "CC=O", "note": "[aceL, Acetaldehyde]", "values": [{"measurement": "Golden standard", "setting": "[1]", "result": "nontox"}, {"measurement": "Golden standard", "setting": "[1]; listed as aceH", "result": "tox"}, {"measurement": "Neuro-developmentally toxic", "setting": "[1]", "result": "no"}, {"measurement": "Neuro-developmentally toxic", "setting": "[1]; listed as aceH", "result": "yes"}, {"measurement": "relative expression value Hoxb6", "setting": "Hoxb6", "result": 0.917}, {"measurement": "relative expression value Hoxb6", "setting": "Hoxb6; listed as aceH", "result": 1.100}, {"measurement": "relative expression value Nrk", "setting": "Nrk", "result": 0.909}, {"measurement": "relative expression value Nrk", "setting": "Nrk; listed as aceH", "result": 1.290}, {"measurement": "relative expression value 1700011H14Rik", "setting": "1700011H14Rik", "result": 1.175}, {"measurement": "relative expression value 1700011H14Rik", "setting": "1700011H14Rik; listed as aceH", "result": 0.562}, {"measurement": "relative expression value Tph1", "setting": "Tph1", "result": 0.891}, {"measurement": "relative expression value Tph1", "setting": "Tph1; listed as aceH", "result": 1.094}]}
{"compound": "NC(=O)N1c2ccccc2C=Cc2ccccc21", "note": "[cbzL, Carbamazepine]", "values": [{"measurement": "Golden standard", "setting": "[1]", "result": "nontox"}, {"measurement": "Golden standard", "setting": "[1]; listed as cbzH", "result": "tox"}, {"measurement": "Neuro-developmentally toxic", "setting": "[1]", "result": "no"}, {"measurement": "Neuro-developmentally toxic", "setting": "[1]; listed as cbzH", "result": "yes"}, {"measurement": "relative expression value Hoxb6", "setting": "Hoxb6", "result": 0.991}, {"measurement": "relative expression value Hoxb6", "setting": "Hoxb6; listed as cbzH", "result": 0.950}, {"measurement": "relative expression value Nrk", "setting": "Nrk", "result": 1.055}, {"measurement": "relative expression value Nrk", "setting": "Nrk; listed as cbzH", "result": 1.217}, {"measurement": "relative expression value 1700011H14Rik", "setting": "1700011H14Rik", "result": 0.870}, {"measurement": "relative expression value 1700011H14Rik", "setting": "1700011H14Rik; listed as cbzH", "result": 0.533}, {"measurement": "relative expression value Tph1", "setting": "Tph1", "result": 0.945}, {"measurement": "relative expression value Tph1", "setting": "Tph1; listed as cbzH", "result": 0.751}]}
{"compound": "CCCCC(O)(Cn1cncn1)c1ccc(Cl)cc1Cl", "note": "(stereo not shown) [hexL, Hexaconazole]", "values": [{"measurement": "Golden standard", "setting": "[2]", "result": "nontox"}, {"measurement": "Neuro-developmentally toxic", "setting": "[2]", "result": "no"}]}
{"compound": "CC1(C)S[C@@H]2[C@H](NC(=O)Cc3ccccc3)C(=O)N2[C@H]1C(=O)[O-].[Na+]", "note": "[pengL, Penicillin G]", "values": [{"measurement": "Golden standard", "setting": "[1]", "result": "nontox"}, {"measurement": "Neuro-developmentally toxic", "setting": "[1]", "result": "no"}]}
{"compound": "O=C1NC(=O)C(c2ccccc2)(c2ccccc2)N1", "note": "[pheL, Phenytoin]", "values": [{"measurement": "Golden standard", "setting": "[1]", "result": "nontox"}, {"measurement": "Golden standard", "setting": "[1]; listed as pheH", "result": "tox"}, {"measurement": "Neuro-developmentally toxic", "setting": "[1]", "result": "no"}, {"measurement": "Neuro-developmentally toxic", "setting": "[1]; listed as pheH", "result": "yes"}, {"measurement": "relative expression value Hoxb6", "setting": "Hoxb6", "result": 0.839}, {"measurement": "relative expression value Hoxb6", "setting": "Hoxb6; listed as pheH", "result": 0.840}, {"measurement": "relative expression value Nrk", "setting": "Nrk", "result": 0.766}, {"measurement": "relative expression value Nrk", "setting": "Nrk; listed as pheH", "result": 0.781}, {"measurement": "relative expression value 1700011H14Rik", "setting": "1700011H14Rik", "result": 1.146}, {"measurement": "relative expression value 1700011H14Rik", "setting": "1700011H14Rik; listed as pheH", "result": 0.995}, {"measurement": "relative expression value Tph1", "setting": "Tph1", "result": 0.817}, {"measurement": "relative expression value Tph1", "setting": "Tph1; listed as pheH", "result": 0.781}]}
{"compound": "Methylmercury chloride [mehgH]", "values": [{"measurement": "Golden standard", "setting": "[1]", "result": "tox"}, {"measurement": "Neuro-developmentally toxic", "setting": "[1]", "result": "yes"}, {"measurement": "relative expression value Hoxb6", "setting": "Hoxb6", "result": 1.302}, {"measurement": "relative expression value Nrk", "setting": "Nrk", "result": 0.719}, {"measurement": "relative expression value 1700011H14Rik", "setting": "1700011H14Rik", "result": 1.665}, {"measurement": "relative expression value Tph1", "setting": "Tph1", "result": 1.116}]}
